Patent publication US9199946B2, “Pyrimidinone carboxamide inhibitors of endothelial lipase” (BRISTOL-MYERS SQUIBB COMPANY, priority 2012, dated 2015)
pIC50: −log10 of the molar value. Like-named read-outs stand apart in the source and are kept apart here.

Target: T1, Endothelial lipase (EL) (Homo sapiens, UniProt Q9Y5X9)
T1 construct: HT-1080 cells, which were transformed by RAGE technology (Athersys) to overexpress endogenous EL; endogenous in cells; conditioned medium used as the enzyme source
T1 sequence (Q9Y5X9 21-500): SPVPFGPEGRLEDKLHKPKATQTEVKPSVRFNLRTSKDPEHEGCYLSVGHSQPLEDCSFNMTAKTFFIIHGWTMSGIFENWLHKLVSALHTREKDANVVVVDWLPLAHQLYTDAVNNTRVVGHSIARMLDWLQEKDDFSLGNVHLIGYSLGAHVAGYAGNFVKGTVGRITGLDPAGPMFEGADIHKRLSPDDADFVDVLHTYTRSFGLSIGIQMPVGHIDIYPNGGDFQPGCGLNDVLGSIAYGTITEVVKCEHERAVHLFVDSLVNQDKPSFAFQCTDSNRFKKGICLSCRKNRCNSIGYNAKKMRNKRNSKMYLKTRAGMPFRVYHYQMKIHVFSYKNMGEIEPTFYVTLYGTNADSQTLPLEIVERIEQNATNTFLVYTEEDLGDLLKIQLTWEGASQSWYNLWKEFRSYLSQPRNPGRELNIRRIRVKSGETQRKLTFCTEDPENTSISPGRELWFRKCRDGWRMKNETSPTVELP
Test: Endothelial lipase (EL) enzymatic assay with fluorescent substrate A10070 in DMPG vesicles
Format: biochemical
In short: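 EL activity was followed as a fluorescence rate (488/530 nm, reads every 20 s for 10 min, linear slope) on A10070 doped at 0.05 mole fraction into sonicated DMPG vesicles. Compound was first incubated 20 min at 37 °C, pH 8.0 HEPES/CaCl2 buffer, with conditioned media from EL-overexpressing HT-1080 cells.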

[1] = range observed in the EL assay, read-out: EL IC50 values
[2] = conditioned media from HT-1080 cells overexpressing endogenous EL, 20 min preincubation at 37° C., read-out: EL IC50

| pIC50 [1] | pIC50 [2] | SMILES |
| --- | --- | --- |
| ≥ 5.00 |  | Nc1c(C(=O)N[C@H]2CC[C@@H](c3ccc(-c4ccc(CO)cc4)cc3)C2)[nH]c(=O)[nH]c1=O [Example 177, 5-amino-N-((1S,3R)-3-(4′-(hydroxymethyl)biphenyl-4-yl)cyclopentyl)-2,6-dioxo-1,2,3,6-tetrahydropyrimidine-4-carboxamide] |
| ≥ 5.00 |  | O=C(N[C@H]1CC[C@@H](c2ccccc2)CC1)c1[nH]c(=O)[nH]c(=O)c1O [Example 238, Hydroxy-2,6-dioxo-N-(cis-4-phenylcyclohexyl)-1,2,3,6-tetrahydropyrimidine-4-carboxamide] |
| ≥ 5.00 | 5.31 | CC1C(NC(=O)c2[nH]c(=O)[nH]c(=O)c2N)CC2(C(C)C)CC12 (centres unmarked) [Example 57, 5-amino-N-(1-isopropyl-4-methylbicyclo[3.1.0]hexan-3-yl)2,6-dioxo-1,2,3,6-tetrahydropyrimidine-4-carboxamide] |
| ≥ 5.00 | 6.18 | O=C(N[C@H]1CC[C@@H](c2ccccc2)CC1)c1[nH]c(=O)[nH]c(=O)c1NC1CCCC1 [Example 208, 5-(cyclopentylamino)-2,6-dioxo-N-(cis-4-phenylcyclohexyl)-1,2,3,6-tetrahydropyrimidine-4-carboxamide] |
| ≥ 5.00 |  | Nc1c(C(=O)N[C@H]2CCc3ccc(OCc4ccccc4)cc32)[nH]c(=O)[nH]c1=O [Example 90, (S)-5-amino-N-(6-(benzyloxy)-2,3-dihydro-1H-inden-1-yl)-2,6-dioxo-1,2,3,6-tetrahydropyrimidine-4-carboxamide] |
| ≥ 5.00 |  | Nc1c(C(=O)N[C@H]2CC[C@H](c3ccc(Cl)c(Cl)c3)C2)[nH]c(=O)[nH]c1=O [Example 69, 5-amino-N-((1S,3S)-3-(3,4-dichlorophenyl)cyclopentyl)-2,6-dioxo-1,2,3,6-tetrahydropyrimidine-4-carboxamide] |
| ≥ 5.00 |  | O=C(N[C@@H]1CCCc2c(NCc3ccccc3)cccc21)c1[nH]c(=O)[nH]c(=O)c1O [Example 286, (R)-N-(5-(benzylamino)-1,2,3,4-tetrahydronaphthalen-1-yl)-5-hydroxy-2,6-dioxo-1,2,3,6-tetrahydropyrimidine-4-carboxamide] |
| ≥ 5.00 |  | Nc1c(C(=O)NC2CCC(c3cnn(Cc4ccccc4)c3)C2)[nH]c(=O)[nH]c1=O (single isomer, unassigned) [Example 131, 5-amino-N-(3-(1-benzyl-1H-pyrazol-4-yl)cyclopentyl)-2,6-dioxo-1,2,3,6-tetrahydropyrimidine-4-carboxamide] |
| ≥ 5.00 |  | Nc1c(C(=O)NC2CCCC(c3ccccc3)C2)[nH]c(=O)[nH]c1=O (single isomer, unassigned) [Example 100, 5-amino-2,6-dioxo-N-(3-phenylcyclohexyl)-1,2,3,6-tetrahydropyrimidine-4-carboxamide] |
| ≥ 5.00 |  | NC(=O)c1ccc(N2CCC(NC(=O)c3[nH]c(=O)[nH]c(=O)c3N)C2)nc1 (centres unmarked) [Example 188, 5-amino-N-(1-(5-carbamoylpyridin-2-yl)pyrrolidin-3-yl)-2,6-dioxo-1,2,3,6-tetrahydropyrimidine-4-carboxamide] |
| ≥ 5.00 |  | O=C(N[C@H]1CC[C@@H](c2ccccc2)CC1)c1[nH]c(=O)[nH]c(=O)c1NCc1ccncc1 [Example 227, 2,6-dioxo-N-(cis-4-phenylcyclohexyl)-5-(pyridin-4-ylmethylamino)-1,2,3,6-tetrahydropyrimidine-4-carboxamide] |
| ≥ 5.00 |  | Nc1c(C(=O)N[C@H]2CC[C@H](c3ccccc3)c3ccccc32)[nH]c(=O)[nH]c1=O [Example 71, 5-amino-2,6-dioxo-N-((1S,4R)-4-phenyl-1,2,3,4-tetrahydronaphthalen-1-yl)-1,2,3,6-tetrahydropyrimidine-4-carboxamide] |
| ≥ 5.00 |  | Nc1c(C(=O)N[C@@H]2CCCc3cc(NC(=O)c4ccccc4)ccc32)[nH]c(=O)[nH]c1=O [Example 105, (R)-5-amino-N-(6-benzamido-1,2,3,4-tetrahydronaphthalen-1-yl)-2,6-dioxo-1,2,3,6-tetrahydropyrimidine-4-carboxamide] |
| ≥ 5.00 |  | Nc1c(C(=O)N[C@@H]2CCc3cc(Oc4ccccc4)ccc32)[nH]c(=O)[nH]c1=O [Example 89, (R)-5-amino-2,6-dioxo-N-(5-phenoxy-2,3-dihydro-1H-inden-1-yl)-1,2,3,6-tetrahydropyrimidine-4-carboxamide] |
| ≥ 5.00 | 5.50 | O=C(Nc1ccccc1)N[C@H]1CC[C@@H](NC(=O)c2[nH]c(=O)[nH]c(=O)c2O)CC1 [Example 280, 5-hydroxy-2,6-dioxo-N-(cis-4-(3-phenylureido)cyclohexyl)-1,2,3,6-tetrahydropyrimidine-4-carboxamide] |
| ≥ 5.00 |  | Nc1c(C(=O)N[C@H]2CC[C@@H](c3ccc(Cl)c(Cl)c3)C2)[nH]c(=O)[nH]c1=O [Example 67, 5-amino-N-((1S,3R)-3-(3,4-dichlorophenyl)cyclopentyl)-2,6-dioxo-1,2,3,6-tetrahydropyrimidine-4-carboxamide] |
| ≥ 5.00 |  | O=C(N[C@H]1CC[C@@H](c2ccccc2)CC1)c1[nH]c(=O)[nH]c(=O)c1NC1CCCc2ccccc21 (stereo partly drawn) [Example 224, 2,6-dioxo-N-(cis-4-phenylcyclohexyl)-5-(1,2,3,4-tetrahydronaphthalen-1-ylamino)-1,2,3,6-tetrahydropyrimidine-4-carboxamide] |
| ≥ 5.00 |  | Cn1c(C(=O)N[C@H]2CC[C@@H](c3ccccc3)CC2)c(O)c(=O)[nH]c1=O [Example 241, 5-Hydroxy-3-methyl-2,6-dioxo-N-(cis-4-phenylcyclohexyl)-1,2,3,6-tetrahydropyrimidine-4-carboxamide] |
| ≥ 5.00 | 6.48 | Nc1c(C(=O)N[C@@H]2CCCc3c(NS(=O)(=O)c4ccccc4)cccc32)[nH]c(=O)[nH]c1=O [Example 125, (R)-5-amino-2,6-dioxo-N-(5-(phenylsulfonamido)-1,2,3,4-tetrahydronaphthalen-1-yl)-1,2,3,6-tetrahydropyrimidine-4-carboxamide] |
| ≥ 5.00 |  | CC(C)(C)OC(=O)N1CCC(NC(=O)c2[nH]c(=O)[nH]c(=O)c2N)C1 (centres unmarked) [Example 62, tert-butyl 3-(5-amino-2,6-dioxo-1,2,3,6-tetrahydropyrimidine-4-carboxamido)pyrrolidine-1-carboxylate] |
| ≥ 5.00 |  | Cn1c(=O)[nH]c(C(=O)N[C@H]2CC[C@@H](c3ccccc3)CC2)c(O)c1=O [Example 242, 5-hydroxy-1-methyl-2,6-dioxo-N-(cis-4-phenylcyclohexyl)-1,2,3,6-tetrahydropyrimidine-4-carboxamide] |
| ≥ 5.00 |  | CC(=O)Nc1ccccc1-c1ccc([C@@H]2CC[C@H](NC(=O)c3[nH]c(=O)[nH]c(=O)c3N)C2)cc1 [Example 162, N-((1S,3R)-3-(2′-acetamidobiphenyl-4-yl)cyclopentyl)-5-amino-2,6-dioxo-1,2,3,6-tetrahydropyrimidine-4-carboxamide] |
| ≥ 5.00 |  | COc1cccc2c1CCCC2NC(=O)c1[nH]c(=O)[nH]c(=O)c1N (centres unmarked) [Example 47, 5-amino-N-(5-methoxy-1,2,3,4-tetrahydronaphthalen-1-yl)-2,6-dioxo 1,2,3,6-tetrahydropyrimidine-4-carboxamide] |
| ≥ 5.00 | 5.56 | Nc1c(C(=O)N[C@@H]2CCc3c2cccc3C(F)(F)F)[nH]c(=O)[nH]c1=O [Example 14, (R)-5-amino-2,6-dioxo-N-(4-(trifluoromethyl)-2,3-dihydro-1H-inden-1-yl)-1,2,3,6-tetrahydropyrimidine-4-carboxamide] |
| ≥ 5.00 |  | O=C(N[C@H]1CC[C@H](C(=O)Nc2ccccc2)C1)c1[nH]c(=O)[nH]c(=O)c1O [Example 290, 5-hydroxy-2,6-dioxo-N-((1S,3S)-3-(phenylcarbamoyl)cyclopentyl)-1,2,3,6-tetrahydropyrimidine-4-carboxamide] |
| ≥ 5.00 |  | O=C(NC1CCCc2c(NS(=O)(=O)c3ccccc3)cccc21)c1[nH]c(=O)[nH]c(=O)c1O (centres unmarked) [Example 287, 5-hydroxy-2,6-dioxo-N-(5-(phenylsulfonamido)-1,2,3,4-tetrahydronaphthalen-1-yl)-1,2,3,6-tetrahydropyrimidine-4-carboxamide] |
| ≥ 5.00 |  | COc1ccc2c(c1)[C@@H](NC(=O)c1[nH]c(=O)[nH]c(=O)c1O)CCC2 [Example 265, (S)-5-hydroxy-N-(7-methoxy-1,2,3,4-tetrahydronaphthalen-1-yl)-2,6-dioxo-1,2,3,6-tetrahydropyrimidine-4-carboxamide] |
| ≥ 5.00 |  | O=C(N[C@H]1CC[C@@H](C(=O)N[C@@H]2CCCc3c(OCc4ccccc4)cccc32)C1)c1[nH]c(=O)[nH]c(=O)c1O [Example 263, N-((1S,3R)-3-((R)-5-(benzyloxy)-1,2,3,4-tetrahydronaphthalen-1-ylcarbamoyl)cyclopentyl)-5-hydroxy-2,6-dioxo-1,2,3,6-tetrahydropyrimidine-4-carboxamide] |
| ≥ 5.00 | 6.35 | Nc1c(C(=O)N[C@H]2CC[C@@H](c3nc(-c4ccc(Cl)c(Cl)c4)no3)CC2)[nH]c(=O)[nH]c1=O [Example 48, 5-amino-N-(cis-4-(3-(3,4-dichlorophenyl)-1,2,4-oxadiazol-5-yl)cyclohexyl)-2,6-dioxo-1,2,3,6-tetrahydropyrimidine-4-carboxamide] |
